According to BigSolDB 2.1:

COc1ccc2cccc(CCNC(C)=O)c2c1
solubility (mole fraction)
Settings | in ethanol | in ethyl acetate | in isopropanol | in methanol | in n-butanol | in n-butyl acetate | in n-pentyl acetate | in n-propanol | in n-propyl acetate | in water
278.15 K | 0.0109 | 0.00662 | 0.00499 | 0.0192 | 0.00986 | 0.00323 | 0.00181 | 0.00905 | 0.00406 | 1.8e-05
283.15 K | 0.0169 | 0.00934 | 0.0107 | 0.0264 | 0.0147 | 0.00474 | 0.00281 | 0.016 | 0.00625 | 2.9e-05
288.15 K | 0.0235 | 0.0131 | 0.0186 | 0.0347 | 0.0214 | 0.00661 | 0.00432 | 0.0201 | 0.00886 | 4.59e-05
293.15 K | 0.0319 | 0.0175 | 0.0256 | 0.0442 | 0.0279 | 0.00944 | 0.00601 | 0.0261 | 0.0127 | 6.85e-05
298.15 K | 0.0425 | 0.0263 | 0.032 | 0.0584 | 0.04 | 0.0134 | 0.00884 | 0.0402 | 0.018 | 0.000119
303.15 K | 0.0542 | 0.0342 | 0.039 | 0.0752 | 0.05 | 0.0207 | 0.0156 | 0.0484 | 0.0255 | 0.000161
308.15 K | 0.0819 | 0.0454 | 0.053 | 0.101 | 0.06 | 0.0261 | 0.021 | 0.0694 | 0.0364 | 0.000248
313.15 K | 0.109 | 0.0598 | 0.0686 | 0.147 | 0.0802 | 0.038 | 0.0294 | 0.0892 | 0.0466 | 0.00038
318.15 K | 0.144 | 0.0754 | 0.0893 | 0.18 | 0.107 | 0.0507 | 0.0397 | 0.115 | 0.0639 | 0.000551
